Experimental data as given in ChEMBL document CHEMBL1145360, “Highly potent growth hormone secretagogues” (Bioorg Med Chem Lett, 2007).
pEC50: −log10 of the molar value.

Columns and labels:
[1] = Stimulation of growth hormone in rat pituitary cell; format: functional, cell-based; settings: pituitary gland cell
Canis familiaris [2] = assay: Effect on growth hormone release in Beagle dog assessed as increase of GH level at 0.25 mg/kg, po relative to basal level; format: functional, Canis lupus familiaris
Canis familiaris [3] = assay: Effect on growth hormone release in Beagle dog assessed as increase of GH level at 0.50 mg/kg, po relative to basal level; format: functional, Canis lupus familiaris; settings: dose 0.5 mg/kg
Canis familiaris [4] = assay: Effect on growth hormone release in Beagle dog assessed as increase of GH level at 0.01 mg/kg, iv relative to basal level; format: functional, Canis lupus familiaris
Canis familiaris [5] = assay: Effect on growth hormone release in Beagle dog assessed as increase of GH level at 0.06 mg/kg, po relative to basal level; format: functional, Canis lupus familiaris

## CC(C)(N)C(=O)N[C@H](CCCc1ccccc1)C(=O)N1CCC2(CC1)C[C@@H](C(=O)NCCNS(C)(=O)=O)c1ccccc12
[1]
  pEC50: 9.68

## CC(C)(N)C(=O)N[C@H](CCCc1ccccc1)C(=O)N1CCC2(CC1)C[C@@H](C(N)=O)c1ccccc12.Cl
[1]
  pEC50: 10.05
Canis familiaris [2]
  Fold change: 4

## CNC(=O)[C@@H]1CC2(CCN(C(=O)[C@@H](CCCc3ccccc3)NC(=O)C(C)(C)N)CC2)c2ccccc21
[1]
  pEC50: 9.40

## CC(C)(N)C(=O)N[C@H](CCCc1ccccc1)C(=O)N1CCC2(CC1)C[C@@H](C(=O)NCCO)c1ccccc12.Cl
[1]
  pEC50: 9.29
Canis familiaris [3]
  Fold change: 4

## C=CCNC(=O)[C@@H]1CC2(CCN(C(=O)[C@@H](CCCc3ccccc3)NC(=O)C(C)(C)N)CC2)c2ccccc21
[1]
  pEC50: 9.85

## CC(C)(N)C(=O)N[C@H](CCCc1ccccc1)C(=O)N1CCC2(CC1)C[C@H](C(N)=O)c1ccccc12
[1]
  pEC50: 9.46

## CC(C)(N)C(=O)N[C@H](CCCc1ccccc1)C(=O)N1CCC2(CC1)C[C@H](C(=O)NCCCCO)c1ccccc12
[1]
  pEC50: 9.14

## CC(C)(N)C(=O)N[C@H](CCCc1ccccc1)C(=O)N1CCC2(CC1)C[C@@H](C(=O)NCCCCO)c1ccccc12
[1]
  pEC50: 9.36

## CC(C)(N)C(=O)N[C@H](CCCc1ccccc1)C(=O)N1CCC2(CC1)C[C@H](C(=O)NCCCO)c1ccccc12
[1]
  pEC50: 9.07

## CCNC(=O)[C@@H]1CC2(CCN(C(=O)[C@@H](CCCc3ccccc3)NC(=O)C(C)(C)N)CC2)c2ccccc21
[1]
  pEC50: 9.05

## CC(C)(N)C(=O)N[C@H](CCCc1ccccc1)C(=O)N1CCC2(CC1)C[C@@H](C(=O)Nc1ccccc1)c1ccccc12
[1]
  pEC50: 8.92

## CC(C)NC(=O)[C@@H]1CC2(CCN(C(=O)[C@@H](CCCc3ccccc3)NC(=O)C(C)(C)N)CC2)c2ccccc21
[1]
  pEC50: 9.52

## CC(C)(N)C(=O)N[C@H](CCCc1ccccc1)C(=O)N1CCC2(CC1)C[C@@H](C(=O)NCCCO)c1ccccc12
[1]
  pEC50: 9.39

## CC(C)(N)C(=O)N[C@H](CCCc1ccccc1)C(=O)N1CCC2(CC1)C[C@H](C(=O)NCCO)c1ccccc12
[1]
  pEC50: 9.35

## CCNC(=O)[C@H]1CC2(CCN(C(=O)[C@@H](CCCc3ccccc3)NC(=O)C(C)(C)N)CC2)c2ccccc21
[1]
  pEC50: 8.68

## CCCNC(=O)[C@@H]1CC2(CCN(C(=O)[C@@H](CCCc3ccccc3)NC(=O)C(C)(C)N)CC2)c2ccccc21.Cl
[1]
  pEC50: 9.82
Canis familiaris [4]
  Fold change: 4
Canis familiaris [5]
  Fold change: 4

## CNC(=O)[C@H]1CC2(CCN(C(=O)[C@@H](CCCc3ccccc3)NC(=O)C(C)(C)N)CC2)c2ccccc21
[1]
  pEC50: 8.42

## CC(C)(N)C(=O)N[C@H](COCc1ccccc1)C(=O)N1CCC2(CC1)CN(S(C)(=O)=O)c1ccccc12 [IBUTAMOREN]
[1]
  pEC50: 8.82
